Experimental data taken from ChEMBL document CHEMBL1828532, “Synthesis and antitubercular evaluation of novel dibenzo[b,d]furan and 9-methyl-9H-carbazole derived hexahydro-2H-pyrano[3,2-c]quinolines via Povarov reaction” (Eur J Med Chem, 2011).
Converted amounts (≈) assume the structure as drawn.

Legend:
[1] = Lipophilicity, log P of the compound; type: physicochemical; details: octanol/water
[2] = tested on: Mycobacterium tuberculosis; experiment: microbe, parasite or virus in culture; details: H37Rv, 672 h
Description: Antimycobacterial activity against Mycobacterium tuberculosis H37Rv after 28 days by agar dilution method

| Structure (SMILES) | logP [1] | MIC [2] [µg/mL] |
| --- | --- | --- |
| Cc1ccc2c(c1)[C@@H]1OCCC[C@@H]1[C@H](c1ccc3oc4ccccc4c3c1)N2 | 4.42 | 12.5 (≈ 33.8 µM) |
| Cn1c2ccccc2c2cc([C@H]3Nc4ccc(F)cc4[C@@H]4OCCC[C@H]34)ccc21 | 4.25 | 3.13 (≈ 8.1 µM) |
| Cn1c2ccccc2c2cc([C@H]3Nc4ccccc4[C@@H]4OCCC[C@H]34)ccc21 (relative stereo) | 4.1 | 12.5 (≈ 33.9 µM) |
| c1ccc2c(c1)N[C@@H](c1ccc3oc4ccccc4c3c1)[C@H]1CCCO[C@@H]21 (relative stereo) | 3.92 | 25 (≈ 70.3 µM) |
| c1ccc2c(c1)N[C@H](c1ccc3oc4ccccc4c3c1)[C@H]1CCCO[C@@H]21 (relative stereo) | 3.92 | 25 (≈ 70.3 µM) |
| Cc1ccc2c(c1)[C@@H]1OCCC[C@@H]1[C@@H](c1ccc3oc4ccccc4c3c1)N2 (relative stereo) | 4.42 | 12.5 (≈ 33.8 µM) |
| COc1ccc2c(c1)[C@@H]1OCCC[C@@H]1[C@H](c1ccc3oc4ccccc4c3c1)N2 (relative stereo) | 3.81 | 12.5 (≈ 32.4 µM) |
| COc1ccc2c(c1)[C@@H]1OCCC[C@@H]1[C@@H](c1ccc3oc4ccccc4c3c1)N2 (relative stereo) | 3.81 | 12.5 (≈ 32.4 µM) |
| Clc1ccc2c(c1)[C@@H]1OCCC[C@@H]1[C@H](c1ccc3oc4ccccc4c3c1)N2 (relative stereo) | 4.49 | 25 (≈ 64.1 µM) |
| Clc1ccc2c(c1)[C@@H]1OCCC[C@@H]1[C@@H](c1ccc3oc4ccccc4c3c1)N2 (relative stereo) | 4.49 | 6.25 (≈ 16 µM) |
| Brc1ccc2c(c1)[C@@H]1OCCC[C@@H]1[C@H](c1ccc3oc4ccccc4c3c1)N2 (relative stereo) | 4.76 | 12.5 (≈ 28.8 µM) |
| Brc1ccc2c(c1)[C@@H]1OCCC[C@@H]1[C@@H](c1ccc3oc4ccccc4c3c1)N2 (relative stereo) | 4.76 | 6.25 (≈ 14.4 µM) |
| Fc1ccc2c(c1)[C@@H]1OCCC[C@@H]1[C@H](c1ccc3oc4ccccc4c3c1)N2 (relative stereo) | 4.09 | 3.13 (≈ 8.38 µM) |
| Fc1ccc2c(c1)[C@@H]1OCCC[C@@H]1[C@@H](c1ccc3oc4ccccc4c3c1)N2 (relative stereo) | 4.09 | 3.13 (≈ 8.38 µM) |
| Cn1c2ccccc2c2cc([C@@H]3Nc4ccccc4[C@@H]4OCCC[C@H]34)ccc21 (relative stereo) | 4.1 | 25 (≈ 67.8 µM) |
| Cc1ccc2c(c1)[C@@H]1OCCC[C@@H]1[C@H](c1ccc3c(c1)c1ccccc1n3C)N2 (relative stereo) | 4.58 | 25 (≈ 65.4 µM) |
| Cc1ccc2c(c1)[C@@H]1OCCC[C@@H]1[C@@H](c1ccc3c(c1)c1ccccc1n3C)N2 (relative stereo) | 4.58 | 25 (≈ 65.4 µM) |
| COc1ccc2c(c1)[C@@H]1OCCC[C@@H]1[C@@H](c1ccc3c(c1)c1ccccc1n3C)N2 (relative stereo) | 3.97 | 25 (≈ 62.7 µM) |
| Cn1c2ccccc2c2cc([C@@H]3Nc4ccc(Cl)cc4[C@@H]4OCCC[C@H]34)ccc21 (relative stereo) | 4.65 | 12.5 (≈ 31 µM) |
| Cn1c2ccccc2c2cc([C@H]3Nc4ccc(Cl)cc4[C@@H]4OCCC[C@H]34)ccc21 (relative stereo) | 4.65 | 6.25 (≈ 15.5 µM) |
| Cn1c2ccccc2c2cc([C@@H]3Nc4ccc(Br)cc4[C@@H]4OCCC[C@H]34)ccc21 (relative stereo) | 4.93 | 25 (≈ 55.9 µM) |
| Cn1c2ccccc2c2cc([C@H]3Nc4ccc(Br)cc4[C@@H]4OCCC[C@H]34)ccc21 (relative stereo) | 4.93 | 6.25 (≈ 14 µM) |
| Cn1c2ccccc2c2cc([C@@H]3Nc4ccc(F)cc4[C@@H]4OCCC[C@H]34)ccc21 (relative stereo) | 4.25 | 6.25 (≈ 16.2 µM) |
| CC[C@@H](CO)NCCN[C@@H](CC)CO [ETHAMBUTOL] |  | 3.13 (≈ 15.3 µM) |
| NNC(=O)c1ccncc1 [ISONIAZID] |  | 0.1 (≈ 0.729 µM) |
| CO[C@H]1/C=C/O[C@@]2(C)Oc3c(C)c(O)c4c(O)c(c(/C=N/N5CCN(C)CC5)c(O)c4c3C2=O)NC(=O)/C(C)=C\C=C\[C@H](C)[C@H](O)[C@@H](C)[C@@H](O)[C@@H](C)[C@H](OC(C)=O)[C@@H]1C [RIFAMPIN] |  | 0.2 (≈ 0.243 µM) |
